Source: the NIST ThermoML archive (doi:10.1016/j.fluid.2017.09.014)

Experiment: xn = mol fraction of the nth substance listed
Details: Vibrating tube method, x2 = 0.9503

O=S=O [sulfur dioxide] + O=C=O
Details | mass density [kg/m3]
272.65 K, 226 kPa, Gas | 4.8
272.65 K, 407 kPa, Gas | 8.5
272.65 K, 503 kPa, Gas | 10.6
272.65 K, 752 kPa, Gas | 16.2
272.65 K, 1013 kPa, Gas | 22.1
272.65 K, 1252 kPa, Gas | 27.9
272.65 K, 1506 kPa, Gas | 34.4
272.65 K, 1752 kPa, Gas | 40.9
272.65 K, 1998 kPa, Gas | 47.9
273.54 K, 25506 kPa, Liquid | 1065.1
273.54 K, 26999 kPa, Liquid | 1069.9
273.54 K, 29024 kPa, Liquid | 1076.3
273.54 K, 29514 kPa, Liquid | 1077.7
273.54 K, 30524 kPa, Liquid | 1080.9
273.54 K, 31975 kPa, Liquid | 1085.1
273.54 K, 32491 kPa, Liquid | 1086.7
273.54 K, 33027 kPa, Liquid | 1088.3
273.54 K, 33521 kPa, Liquid | 1089.7
273.54 K, 34032 kPa, Liquid | 1091.1
273.54 K, 34491 kPa, Liquid | 1092.3
273.54 K, 35043 kPa, Liquid | 1093.9
273.54 K, 35534 kPa, Liquid | 1095.1
273.54 K, 36045 kPa, Liquid | 1096.7
273.54 K, 36490 kPa, Liquid | 1097.6
273.54 K, 37047 kPa, Liquid | 1099
273.54 K, 37529 kPa, Liquid | 1100.5
273.54 K, 38033 kPa, Liquid | 1101.8
273.54 K, 38558 kPa, Liquid | 1103.1
273.54 K, 41723 kPa, Liquid | 1110.7
273.55 K, 20535 kPa, Liquid | 1047.9
273.55 K, 24032 kPa, Liquid | 1060.4
273.55 K, 24523 kPa, Liquid | 1061.9
273.55 K, 25039 kPa, Liquid | 1063.6
273.55 K, 26016 kPa, Liquid | 1066.9
273.55 K, 26484 kPa, Liquid | 1068.3
273.55 K, 27554 kPa, Liquid | 1071.7
273.55 K, 28041 kPa, Liquid | 1073
273.55 K, 28539 kPa, Liquid | 1074.9
273.55 K, 30026 kPa, Liquid | 1079.4
273.55 K, 30952 kPa, Liquid | 1082.2
273.55 K, 31482 kPa, Liquid | 1083.6
273.55 K, 38992 kPa, Liquid | 1104
273.55 K, 39553 kPa, Liquid | 1105.7
273.55 K, 40023 kPa, Liquid | 1106.6
273.55 K, 40508 kPa, Liquid | 1107.8
273.55 K, 41016 kPa, Liquid | 1109
273.56 K, 12509 kPa, Liquid | 1014.7
273.56 K, 13012 kPa, Liquid | 1017.2
273.56 K, 13506 kPa, Liquid | 1019.3
273.56 K, 17514 kPa, Liquid | 1036.2
273.56 K, 18049 kPa, Liquid | 1038.2
273.56 K, 18515 kPa, Liquid | 1040.1
273.56 K, 19000 kPa, Liquid | 1042.1
273.56 K, 19509 kPa, Liquid | 1044
273.56 K, 20028 kPa, Liquid | 1046
273.56 K, 21029 kPa, Liquid | 1049.7
273.56 K, 21519 kPa, Liquid | 1051.3
273.56 K, 21993 kPa, Liquid | 1053
273.56 K, 22501 kPa, Liquid | 1054.9
273.56 K, 23496 kPa, Liquid | 1058.4
273.56 K, 41601 kPa, Liquid | 1110.4
273.57 K, 9944 kPa, Liquid | 1001.9
273.57 K, 10516 kPa, Liquid | 1004.5
273.57 K, 11003 kPa, Liquid | 1007
273.57 K, 11502 kPa, Liquid | 1009.5
273.57 K, 12005 kPa, Liquid | 1012.2
273.57 K, 14518 kPa, Liquid | 1023.6
273.57 K, 14951 kPa, Liquid | 1025.4
273.57 K, 15999 kPa, Liquid | 1029.8
273.57 K, 16500 kPa, Liquid | 1031.9
273.57 K, 17024 kPa, Liquid | 1034.2
273.57 K, 23015 kPa, Liquid | 1056.6
273.58 K, 8503 kPa, Liquid | 993.8
273.58 K, 9008 kPa, Liquid | 996.7
273.58 K, 9518 kPa, Liquid | 999.7
273.58 K, 15602 kPa, Liquid | 1028.1
273.6 K, 4001 kPa, Liquid | 964.9
273.6 K, 5521 kPa, Liquid | 975.5
273.6 K, 6005 kPa, Liquid | 978.7
273.6 K, 6503 kPa, Liquid | 981.9
273.6 K, 7034 kPa, Liquid | 984.6
273.6 K, 7688 kPa, Liquid | 987.5
273.6 K, 8003 kPa, Liquid | 990.6
273.61 K, 4518 kPa, Liquid | 968.2
273.61 K, 5013 kPa, Liquid | 972.1
282.65 K, 800 kPa, Gas | 16.5
282.65 K, 1249 kPa, Gas | 26.3
282.66 K, 120 kPa, Gas | 2.5
282.66 K, 211 kPa, Gas | 4.3
282.66 K, 301 kPa, Gas | 6.1
282.66 K, 408 kPa, Gas | 8.5
282.66 K, 511 kPa, Gas | 10.6
282.66 K, 608 kPa, Gas | 12.3
282.66 K, 1009 kPa, Gas | 21.1
282.66 K, 1509 kPa, Gas | 32.8
282.66 K, 1705 kPa, Gas | 37.5
282.66 K, 1909 kPa, Gas | 42.7
282.66 K, 2010 kPa, Gas | 45.2
282.66 K, 2199 kPa, Gas | 50.5
282.66 K, 2508 kPa, Gas | 59.6
282.66 K, 2702 kPa, Gas | 65.5
282.66 K, 3008 kPa, Gas | 76
283.31 K, 27537 kPa, Liquid | 1038.9
283.31 K, 34500 kPa, Liquid | 1062.8
283.31 K, 35516 kPa, Liquid | 1065.8
283.31 K, 36037 kPa, Liquid | 1067.5
283.31 K, 36515 kPa, Liquid | 1068.6
283.31 K, 37578 kPa, Liquid | 1072.1
283.31 K, 38061 kPa, Liquid | 1073.3
283.32 K, 5005 kPa, Liquid | 910.4
